Reference: a compilation of properties of binary mixtures (doi:10.1021/acs.jced.1c00111)

Test: xn = mol fraction of the nth substance listed
Settings: 100 kPa

CC[NH+](C)CC.CS(=O)(=O)[O-] + O
viscosity (298.15 K, x1 = 0.0155): 1.28 mPa·s | viscosity (298.15 K, x1 = 0.0356): 2.02 mPa·s | viscosity (298.15 K, x1 = 0.0571): 2.57 mPa·s | viscosity (298.15 K, x1 = 0.0757): 3.43 mPa·s | viscosity (298.15 K, x1 = 0.1234): 5.96 mPa·s | viscosity (298.15 K, x1 = 0.1582): 8.21 mPa·s | viscosity (298.15 K, x1 = 0.206): 11.6 mPa·s | viscosity (298.15 K, x1 = 0.3246): 20 mPa·s | viscosity (298.15 K, x1 = 0.5018): 42.1 mPa·s | viscosity (298.15 K, x1 = 0.5783): 52.8 mPa·s | viscosity (298.15 K, x1 = 0.7782): 90.5 mPa·s | viscosity (303.15 K, x1 = 0.0155): 1.15 mPa·s | viscosity (303.15 K, x1 = 0.0356): 1.84 mPa·s | viscosity (303.15 K, x1 = 0.0571): 2.27 mPa·s | viscosity (303.15 K, x1 = 0.0757): 2.99 mPa·s | viscosity (303.15 K, x1 = 0.1234): 5.09 mPa·s | viscosity (303.15 K, x1 = 0.1582): 6.94 mPa·s | viscosity (303.15 K, x1 = 0.206): 9.76 mPa·s | viscosity (303.15 K, x1 = 0.4263): 25.9 mPa·s | viscosity (303.15 K, x1 = 0.5018): 34 mPa·s | viscosity (303.15 K, x1 = 0.5783): 42.1 mPa·s | viscosity (303.15 K, x1 = 0.7782): 70.3 mPa·s | viscosity (308.15 K, x1 = 0.0356): 1.64 mPa·s | viscosity (308.15 K, x1 = 0.0571): 2 mPa·s | viscosity (308.15 K, x1 = 0.0757): 2.64 mPa·s | viscosity (308.15 K, x1 = 0.0967): 3.45 mPa·s | viscosity (308.15 K, x1 = 0.1234): 4.39 mPa·s | viscosity (308.15 K, x1 = 0.1582): 5.93 mPa·s | viscosity (308.15 K, x1 = 0.206): 8.3 mPa·s | viscosity (308.15 K, x1 = 0.3246): 13.9 mPa·s | viscosity (308.15 K, x1 = 0.4263): 22 mPa·s | viscosity (308.15 K, x1 = 0.6771): 44.2 mPa·s | viscosity (313.15 K, x1 = 0.0155): 0.957 mPa·s | viscosity (313.15 K, x1 = 0.0356): 1.47 mPa·s | viscosity (313.15 K, x1 = 0.0757): 2.34 mPa·s | viscosity (313.15 K, x1 = 0.0967): 3.05 mPa·s | viscosity (313.15 K, x1 = 0.1234): 3.82 mPa·s | viscosity (313.15 K, x1 = 0.1582): 5.13 mPa·s | viscosity (313.15 K, x1 = 0.206): 7.11 mPa·s | viscosity (313.15 K, x1 = 0.5018): 22.8 mPa·s | viscosity (313.15 K, x1 = 0.5783): 28.3 mPa·s | viscosity (313.15 K, x1 = 0.6771): 36 mPa·s | viscosity (313.15 K, x1 = 0.7782): 44.9 mPa·s | viscosity (318.15 K, x1 = 0.0155): 0.876 mPa·s | viscosity (318.15 K, x1 = 0.0356): 1.34 mPa·s | viscosity (318.15 K, x1 = 0.0571): 1.61 mPa·s | viscosity (318.15 K, x1 = 0.0757): 2.09 mPa·s | viscosity (318.15 K, x1 = 0.0967): 2.7 mPa·s | viscosity (318.15 K, x1 = 0.1234): 3.35 mPa·s | viscosity (318.15 K, x1 = 0.206): 6.12 mPa·s | viscosity (318.15 K, x1 = 0.3246): 10.1 mPa·s | viscosity (318.15 K, x1 = 0.4263): 15.6 mPa·s | viscosity (318.15 K, x1 = 0.5018): 19.4 mPa·s | viscosity (318.15 K, x1 = 0.5783): 23.6 mPa·s | viscosity (318.15 K, x1 = 0.6771): 29.8 mPa·s | viscosity (318.15 K, x1 = 0.7782): 36.5 mPa·s | viscosity (323.15 K, x1 = 0.0155): 0.806 mPa·s | viscosity (323.15 K, x1 = 0.0356): 1.22 mPa·s | viscosity (323.15 K, x1 = 0.0571): 1.45 mPa·s | viscosity (323.15 K, x1 = 0.0757): 1.87 mPa·s | viscosity (323.15 K, x1 = 0.0967): 2.42 mPa·s | viscosity (323.15 K, x1 = 0.1234): 2.97 mPa·s | viscosity (323.15 K, x1 = 0.1582): 3.92 mPa·s | viscosity (323.15 K, x1 = 0.206): 5.3 mPa·s | viscosity (323.15 K, x1 = 0.3246): 8.94 mPa·s | viscosity (323.15 K, x1 = 0.4263): 13.2 mPa·s | viscosity (323.15 K, x1 = 0.5018): 16.5 mPa·s | viscosity (323.15 K, x1 = 0.5783): 20 mPa·s | viscosity (323.15 K, x1 = 0.6771): 24.8 mPa·s | viscosity (323.15 K, x1 = 0.7782): 30 mPa·s | viscosity (328.15 K, x1 = 0.0155): 0.751 mPa·s | viscosity (328.15 K, x1 = 0.0356): 1.13 mPa·s | viscosity (328.15 K, x1 = 0.0571): 1.31 mPa·s | viscosity (328.15 K, x1 = 0.0757): 1.68 mPa·s | viscosity (328.15 K, x1 = 0.0967): 2.17 mPa·s | viscosity (328.15 K, x1 = 0.1234): 2.64 mPa·s | viscosity (328.15 K, x1 = 0.3246): 7.81 mPa·s | viscosity (328.15 K, x1 = 0.4263): 11.5 mPa·s | viscosity (328.15 K, x1 = 0.5783): 17 mPa·s | viscosity (328.15 K, x1 = 0.6771): 21.1 mPa·s | viscosity (333.15 K, x1 = 0.0155): 0.693 mPa·s | viscosity (333.15 K, x1 = 0.0356): 1.04 mPa·s | viscosity (333.15 K, x1 = 0.0571): 1.2 mPa·s | viscosity (333.15 K, x1 = 0.0757): 1.53 mPa·s | viscosity (333.15 K, x1 = 0.1234): 2.36 mPa·s | viscosity (333.15 K, x1 = 0.1582): 3.08 mPa·s | viscosity (333.15 K, x1 = 0.206): 4.03 mPa·s | viscosity (333.15 K, x1 = 0.4263): 9.9 mPa·s | viscosity (333.15 K, x1 = 0.5783): 14.5 mPa·s | viscosity (333.15 K, x1 = 0.6771): 18.1 mPa·s | viscosity (333.15 K, x1 = 0.7782): 22.2 mPa·s | viscosity (338.15 K, x1 = 0.0155): 0.643 mPa·s | viscosity (338.15 K, x1 = 0.0356): 0.953 mPa·s | viscosity (338.15 K, x1 = 0.0757): 1.39 mPa·s | viscosity (338.15 K, x1 = 0.0967): 1.79 mPa·s | viscosity (338.15 K, x1 = 0.1234): 2.12 mPa·s | viscosity (338.15 K, x1 = 0.1582): 2.75 mPa·s | viscosity (338.15 K, x1 = 0.206): 3.55 mPa·s | viscosity (338.15 K, x1 = 0.7782): 18.7 mPa·s
